# From publication PMC3601661 (Steroids, 2012)
# Where two headings read alike, the source gives them in different places.
# How the values were obtained:
# Sulforhodamine B = format: cell-based; conditions: human
# [1] = target: T1, progesterone receptor (PR) (Homo sapiens, UniProt P06401); test: PRE-luciferase reporter assay in T47D cells; format: cell-based; conditions: for PRE-luciferase Fold increase (10μM): compound 10 μM, over DMSO; for dose-dependent activation of PRE-luciferase: five increasing doses; for compound-induced PRE-luciferase activity in the presence of RU486: with 1 μM RU486, T47D cells
# T1 sequence (P06401 679-933 limits assumed): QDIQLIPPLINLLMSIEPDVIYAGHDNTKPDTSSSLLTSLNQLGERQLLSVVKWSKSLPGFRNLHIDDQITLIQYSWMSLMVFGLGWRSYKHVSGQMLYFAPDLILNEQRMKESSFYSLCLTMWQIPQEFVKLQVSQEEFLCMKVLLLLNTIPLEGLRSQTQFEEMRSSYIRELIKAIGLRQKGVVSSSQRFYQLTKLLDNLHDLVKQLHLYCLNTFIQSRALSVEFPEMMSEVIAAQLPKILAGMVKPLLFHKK
# [2] = target: T2, progesterone receptor ligand binding domain (PR-LBD-GST) (Homo sapiens, UniProt P06401); test: Progesterone receptor polarization competitive binding assay
# T2 sequence (P06401 675-933): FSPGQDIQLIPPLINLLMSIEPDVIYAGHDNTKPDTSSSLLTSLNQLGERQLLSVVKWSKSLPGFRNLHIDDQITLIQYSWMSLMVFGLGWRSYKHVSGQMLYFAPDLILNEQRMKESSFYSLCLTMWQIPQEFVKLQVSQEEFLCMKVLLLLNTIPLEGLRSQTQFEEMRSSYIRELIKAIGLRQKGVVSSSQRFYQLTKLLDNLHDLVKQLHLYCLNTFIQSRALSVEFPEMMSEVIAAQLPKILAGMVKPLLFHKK
# [3] = target: T3, progesterone receptor (PR) (Homo sapiens, UniProt P06401); test: PRE-luciferase reporter assay in human endometrial stromal cells; format: cell-based; conditions: for dose-dependent activation of PRE-luciferase: HESC; for compound-induced PRE-luciferase in the presence of RU486: compound 20 μM with 1 μM RU486, HESC
# T3 sequence (P06401 1-933): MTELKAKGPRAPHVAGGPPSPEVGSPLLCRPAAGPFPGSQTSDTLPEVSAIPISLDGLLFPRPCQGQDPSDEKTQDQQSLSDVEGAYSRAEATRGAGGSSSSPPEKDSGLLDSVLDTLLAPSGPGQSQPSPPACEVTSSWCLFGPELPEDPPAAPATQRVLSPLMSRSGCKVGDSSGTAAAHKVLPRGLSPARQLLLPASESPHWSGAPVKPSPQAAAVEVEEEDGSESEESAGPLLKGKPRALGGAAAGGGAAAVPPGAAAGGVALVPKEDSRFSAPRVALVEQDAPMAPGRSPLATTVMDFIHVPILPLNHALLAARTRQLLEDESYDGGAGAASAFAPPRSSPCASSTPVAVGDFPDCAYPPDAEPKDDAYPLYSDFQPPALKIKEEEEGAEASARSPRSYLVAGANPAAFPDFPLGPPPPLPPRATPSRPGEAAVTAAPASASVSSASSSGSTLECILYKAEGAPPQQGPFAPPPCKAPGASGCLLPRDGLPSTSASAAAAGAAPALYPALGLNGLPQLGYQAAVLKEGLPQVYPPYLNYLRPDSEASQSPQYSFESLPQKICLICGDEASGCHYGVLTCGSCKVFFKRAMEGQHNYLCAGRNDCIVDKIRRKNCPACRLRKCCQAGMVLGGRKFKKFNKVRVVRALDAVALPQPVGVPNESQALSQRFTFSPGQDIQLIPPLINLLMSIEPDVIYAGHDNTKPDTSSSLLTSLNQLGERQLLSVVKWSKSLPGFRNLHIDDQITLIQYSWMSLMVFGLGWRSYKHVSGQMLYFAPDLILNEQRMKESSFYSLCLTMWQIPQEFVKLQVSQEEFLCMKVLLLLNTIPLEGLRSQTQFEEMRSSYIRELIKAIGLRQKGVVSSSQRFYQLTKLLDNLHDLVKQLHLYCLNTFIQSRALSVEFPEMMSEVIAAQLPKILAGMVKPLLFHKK
# PRA and PRB protein = test: Western blot of PRA and PRB expression in T47D cells; format: cell-based, human; conditions: P4 1 μM, flavonoids 100 μM, 1.5 h or 16 h
# prolactin (PRL) mRNA = test: Quantitative PCR of decidualization gene PRL in HESC; format: cell-based, human; conditions: 100 μM, 48 h, with E2 and 8-Br-cAMP
# ZBTB16 mRNA = test: Quantitative PCR of the P4 responsive gene ZBTB16 in T47D cells; format: cell-based, human; conditions: 100 μM, 24 h
# [4] = tested on: MPA-induced mammary tumors; conditions: rats; cited from earlier work
# T47D cells = test: Sulforhodamine B; format: cell-based
# [5] = tested on: cannabinoid receptor 1 (CNR1) mRNA; test: Quantitative PCR of decidualization gene CNR1 in HESC; format: cell-based, human; conditions: 100 μM, 48 h, with E2 and 8-Br-cAMP
# [6] = target: T1, progesterone receptor (PR); test: PRE-luciferase in T47D cells in combination with P4; format: cell-based; conditions: 10 μM compound plus 100 nM P4, 24 h
# ovarian cancer = conditions: kaempferol intake, human observational studies; cited from earlier work
compound,measurement,setting,value
"COc1ccc(-c2coc3cc(O)ccc3c2=O)cc1 [Formononetin, formononetin]",CC50 at 24 h,Sulforhodamine B; T47D cells,> 20 µM
same,PRE-luciferase Fold increase (10μM),[1]; T47D cells,1.5 ± 0.6 fold
same,IC50,[2],> 250 µM
"CC(=O)O[C@]1(C(C)=O)CC[C@H]2[C@@H]3C[C@H](C)C4=CC(=O)CC[C@]4(C)[C@H]3CC[C@@]21C [MPA, medroxyprogesterone acetate, reference compound]",dose-dependent activation of PRE-luciferase,[3],dose-dependently activated
same,compound-induced PRE-luciferase in the presence of RU486,[3],significantly inhibited
same,PRE-luciferase activity compared with P4,"[1]; T47D cells, data not shown",comparable activity
"O=c1c(-c2ccc(O)cc2)coc2cc(O)ccc12 [Daidzein, daidzein]",CC50 at 24 h,Sulforhodamine B; T47D cells,> 20 µM
same,PRE-luciferase Fold increase (10μM),[1]; T47D cells,1.0 ± 0.4 fold
same,IC50,[2],> 250 µM
"CC(=O)[C@H]1CC[C@H]2[C@@H]3CCC4=CC(=O)CC[C@]4(C)[C@H]3CC[C@]12C [Progesterone, reference compound]",downregulation of PRA and PRB protein expression,PRA and PRB protein,downregulation of PRB and more noticeably PRA
same,dose-dependent activation of PRE-luciferase,[1]; T47D cells,dose-dependently activated
same,compound-induced PRE-luciferase activity in the presence of RU486,[1],significantly abrogate
"O=c1cc(-c2ccc(O)cc2)oc2cc(O)cc(O)c12 [Apigenin, apigenin]",induction of PRL expression,prolactin (PRL) mRNA,induced PRL expression
same,CC50 at 24 h,Sulforhodamine B,> 20 µM
same,induction of ZBTB16 mRNA,ZBTB16 mRNA,did not induce
same,development of MPA-induced mammary tumors,[4],prevents the development
"COc1ccc(-c2coc3cc(O)cc(O)c3c2=O)cc1 [Biochanin A, biochanin A]",CC50,T47D cells,> 20 µM
same,PRE-luciferase Fold increase (10μM),[1]; T47D cells,1.0 ± 0.1 fold
same,IC50,"[2]; read-out: PR Binding IC50, pure compounds, purified PR",> 250 µM
O=c1c(-c2ccc(O)cc2)coc2cc(O)cc(O)c12 [Genistein],CC50 at 24 h,Sulforhodamine B,> 20 µM
same,PRE-luciferase Fold increase (10μM),[1]; T47D cells,2.2 ± 1.1 fold
same,IC50,[2],> 250 µM
"O=C1C[C@@H](c2ccc(O)cc2)Oc2cc(O)cc(O)c21 [Naringenin, naringenin]",induction of PRL expression,prolactin (PRL) mRNA,induced PRL expression
same,CC50 at 24 h,Sulforhodamine B; T47D cells,> 20 µM
same,downregulation of PRA and PRB protein expression,PRA and PRB protein,not observed
same,induction of ZBTB16 mRNA,ZBTB16 mRNA,did not induce
same,PRE-luciferase activation versus solvent control,"[1]; 20 μM, T47D cells",reached significance
same,PRE-luciferase Fold increase (10μM),[1]; T47D cells,1.9± 0.4 fold
same,dose-dependent activation of PRE-luciferase,[1]; T47D cells,dose-dependently activated
same,compound-induced PRE-luciferase activity in the presence of RU486,[1],significantly abrogate
same,IC50,[2],6.9 ± 1.8 µM
same,induction of CNR1 expression,[5],did not induce CNR1 expression
"O=c1c(O)c(-c2ccc(O)cc2)oc2cc(O)cc(O)c12 [Kaempferol, kaempferol]",induction of PRL expression,prolactin (PRL) mRNA,induced PRL expression
same,downregulation of P4-induced PRE-luciferase,[6],significantly downregulated
same,CC50 at 24 h,Sulforhodamine B; T47D cells,> 20 µM
same,downregulation of PRA and PRB protein expression,PRA and PRB protein,not observed
same,dose-dependent activation of PRE-luciferase,[3],dose-dependently activated
same,compound-induced PRE-luciferase in the presence of RU486,[3],significantly inhibited
same,induction of ZBTB16 mRNA,ZBTB16 mRNA,significantly induced
same,concentration of highest PRE-luciferase activity from dose response curves,[1]; T47D cells,7.5 µM
same,PRE-luciferase Fold increase (10μM),[1]; T47D cells,5.5 ± 1.8 fold
same,dose-dependent activation of PRE-luciferase,[1]; T47D cells,dose-dependently activated
same,concentration above which PRE-luciferase activity started to decrease,[1]; likely due to cell death,> 10 µM
same,compound-induced PRE-luciferase activity in the presence of RU486,[1],significantly abrogate
same,IC50,[2],1.5 ± 0.4 µM
same,decrease of ovarian cancer incidence,ovarian cancer,40%
